Experimental data taken from ChEMBL document CHEMBL5150077, “Identification of TUL01101: A Novel Potent and Selective JAK1 Inhibitor for the Treatment of Rheumatoid Arthritis” (J Med Chem, 2022).
Activity calls are given as the source filed them. The rule behind the calls is not given here.

Key:
[1] = target: T1, Tyrosine-protein kinase JAK3 (Homo sapiens, UniProt P52333); assay: Inhibition of recombinant human JAK3 using GGEEEEYFELVKKKK as substrate incubated for 40 mins in presence of Mg/ATP mixture by [gamma p33]-ATP based scintillation counting method
T1 sequence (P52333 whole entry): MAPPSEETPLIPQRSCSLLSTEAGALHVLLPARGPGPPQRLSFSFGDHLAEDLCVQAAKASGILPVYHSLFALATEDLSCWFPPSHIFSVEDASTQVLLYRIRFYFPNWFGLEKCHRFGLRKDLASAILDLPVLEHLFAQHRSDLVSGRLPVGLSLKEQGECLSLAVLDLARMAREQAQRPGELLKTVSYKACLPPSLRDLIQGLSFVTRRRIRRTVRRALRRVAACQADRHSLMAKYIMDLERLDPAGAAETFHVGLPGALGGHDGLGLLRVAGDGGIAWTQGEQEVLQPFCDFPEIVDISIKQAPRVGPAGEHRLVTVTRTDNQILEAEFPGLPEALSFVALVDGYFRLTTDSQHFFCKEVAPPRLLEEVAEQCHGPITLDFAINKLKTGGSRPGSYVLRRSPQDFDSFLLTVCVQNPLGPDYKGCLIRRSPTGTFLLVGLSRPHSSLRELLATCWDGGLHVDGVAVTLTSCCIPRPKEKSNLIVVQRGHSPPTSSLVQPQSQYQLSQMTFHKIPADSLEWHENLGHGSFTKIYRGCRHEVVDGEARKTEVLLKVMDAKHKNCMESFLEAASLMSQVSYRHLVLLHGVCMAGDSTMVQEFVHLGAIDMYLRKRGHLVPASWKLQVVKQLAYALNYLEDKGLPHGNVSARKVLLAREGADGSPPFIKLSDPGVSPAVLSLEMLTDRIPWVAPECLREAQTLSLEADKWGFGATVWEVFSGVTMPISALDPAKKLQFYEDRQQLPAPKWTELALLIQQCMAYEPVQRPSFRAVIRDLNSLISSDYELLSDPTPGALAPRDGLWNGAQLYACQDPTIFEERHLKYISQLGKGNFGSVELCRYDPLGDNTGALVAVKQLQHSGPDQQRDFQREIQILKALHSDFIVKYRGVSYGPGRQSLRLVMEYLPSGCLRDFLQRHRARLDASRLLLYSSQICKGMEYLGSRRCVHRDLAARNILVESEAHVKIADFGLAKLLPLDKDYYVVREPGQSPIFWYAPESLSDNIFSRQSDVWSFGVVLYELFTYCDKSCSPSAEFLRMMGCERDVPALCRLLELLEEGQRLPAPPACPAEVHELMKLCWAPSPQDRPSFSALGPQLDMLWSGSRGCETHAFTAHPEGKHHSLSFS

[2] = target: Non-receptor tyrosine-protein kinase TYK2 (Homo sapiens, UniProt P29597); assay: Inhibition of recombinant human TYK2 using GGMEDIYFEFMGGKKK as substrate incubated for 40 mins in presence of Mg/ATP mixture by [gamma p33]-ATP based scintillation counting method
Chain of Non-receptor tyrosine-protein kinase TYK2 (P29597 whole entry): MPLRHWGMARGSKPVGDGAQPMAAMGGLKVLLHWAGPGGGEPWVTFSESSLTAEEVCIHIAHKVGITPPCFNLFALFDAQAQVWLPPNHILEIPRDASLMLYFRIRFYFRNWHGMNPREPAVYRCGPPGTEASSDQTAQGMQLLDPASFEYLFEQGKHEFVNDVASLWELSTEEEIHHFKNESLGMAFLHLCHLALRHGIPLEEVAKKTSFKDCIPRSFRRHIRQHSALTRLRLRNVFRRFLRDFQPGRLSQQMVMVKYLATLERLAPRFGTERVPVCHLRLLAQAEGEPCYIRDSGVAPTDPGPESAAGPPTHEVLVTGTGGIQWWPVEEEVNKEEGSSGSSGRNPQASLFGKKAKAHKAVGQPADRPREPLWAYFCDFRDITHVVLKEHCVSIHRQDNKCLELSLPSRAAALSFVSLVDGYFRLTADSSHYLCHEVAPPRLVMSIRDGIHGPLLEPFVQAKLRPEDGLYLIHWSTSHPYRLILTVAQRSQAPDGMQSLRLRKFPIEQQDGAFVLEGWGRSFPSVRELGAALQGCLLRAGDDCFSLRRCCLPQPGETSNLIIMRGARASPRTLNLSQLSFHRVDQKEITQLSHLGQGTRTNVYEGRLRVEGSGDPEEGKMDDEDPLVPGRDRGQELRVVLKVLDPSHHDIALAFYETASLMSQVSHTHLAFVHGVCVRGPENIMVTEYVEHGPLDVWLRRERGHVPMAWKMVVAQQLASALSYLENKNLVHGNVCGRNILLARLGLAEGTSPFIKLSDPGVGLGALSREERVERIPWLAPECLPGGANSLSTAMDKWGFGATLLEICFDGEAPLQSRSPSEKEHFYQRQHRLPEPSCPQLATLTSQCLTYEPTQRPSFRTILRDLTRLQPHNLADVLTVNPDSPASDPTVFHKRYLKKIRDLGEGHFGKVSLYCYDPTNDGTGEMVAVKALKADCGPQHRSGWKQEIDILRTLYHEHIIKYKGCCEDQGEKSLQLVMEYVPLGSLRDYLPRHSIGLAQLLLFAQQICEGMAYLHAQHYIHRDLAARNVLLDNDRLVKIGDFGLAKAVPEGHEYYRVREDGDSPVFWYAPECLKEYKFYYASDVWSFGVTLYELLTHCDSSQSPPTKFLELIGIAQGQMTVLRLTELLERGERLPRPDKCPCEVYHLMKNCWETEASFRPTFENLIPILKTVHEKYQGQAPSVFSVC

[3] = Microsomal stability in human liver microsomes assessed as intrinsic clearance at 1 uM incubated for 60 mins in presence of NADPH regenerating system by LC-MS/MS analysis; type: ADME, Microsome; details: read-out: CLH
[4] = target: T2, Cytochrome P450 2C8 (Homo sapiens, UniProt P10632); assay: Inhibition of CYP2C8 in human liver microsomes incubated in presence NADPH by LC-MS/MS analysis
T2 sequence (P10632 whole entry): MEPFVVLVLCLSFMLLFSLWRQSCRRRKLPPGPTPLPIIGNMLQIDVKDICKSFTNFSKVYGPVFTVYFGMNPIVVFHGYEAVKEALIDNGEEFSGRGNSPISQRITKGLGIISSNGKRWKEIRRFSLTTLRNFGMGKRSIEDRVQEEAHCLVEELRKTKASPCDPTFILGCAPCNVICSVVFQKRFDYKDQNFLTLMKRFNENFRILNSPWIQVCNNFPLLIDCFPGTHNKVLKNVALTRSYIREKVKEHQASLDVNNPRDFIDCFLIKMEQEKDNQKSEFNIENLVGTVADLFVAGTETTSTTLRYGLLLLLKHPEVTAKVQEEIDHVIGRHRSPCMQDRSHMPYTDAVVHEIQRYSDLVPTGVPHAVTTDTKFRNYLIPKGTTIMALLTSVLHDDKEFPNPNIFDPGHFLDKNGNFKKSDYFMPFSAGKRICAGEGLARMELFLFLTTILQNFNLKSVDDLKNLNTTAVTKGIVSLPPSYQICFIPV

[5] = target: Cytochrome P450 2C19 (Homo sapiens, UniProt P33261); assay: Inhibition of CYP2C19 in human liver microsomes incubated in presence NADPH by LC-MS/MS analysis
Chain of Cytochrome P450 2C19 (P33261 whole entry): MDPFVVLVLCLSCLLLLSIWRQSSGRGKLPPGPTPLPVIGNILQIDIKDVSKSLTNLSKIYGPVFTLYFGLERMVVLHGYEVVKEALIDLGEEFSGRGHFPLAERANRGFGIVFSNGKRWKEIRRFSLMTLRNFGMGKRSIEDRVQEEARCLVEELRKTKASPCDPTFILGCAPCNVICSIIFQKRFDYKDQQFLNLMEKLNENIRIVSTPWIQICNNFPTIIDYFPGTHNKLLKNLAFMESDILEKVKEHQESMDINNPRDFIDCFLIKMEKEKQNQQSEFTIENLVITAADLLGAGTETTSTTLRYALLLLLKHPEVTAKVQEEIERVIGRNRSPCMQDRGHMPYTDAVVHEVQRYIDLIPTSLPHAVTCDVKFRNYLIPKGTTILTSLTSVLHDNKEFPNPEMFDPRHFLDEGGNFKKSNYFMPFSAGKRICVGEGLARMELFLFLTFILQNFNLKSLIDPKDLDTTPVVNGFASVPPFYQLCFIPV

[6] = target: Cytochrome P450 2D6 (Homo sapiens, UniProt P10635); assay: Inhibition of CYP2D6 in human liver microsomes incubated in presence NADPH by LC-MS/MS analysis
Chain of Cytochrome P450 2D6 (P10635 whole entry): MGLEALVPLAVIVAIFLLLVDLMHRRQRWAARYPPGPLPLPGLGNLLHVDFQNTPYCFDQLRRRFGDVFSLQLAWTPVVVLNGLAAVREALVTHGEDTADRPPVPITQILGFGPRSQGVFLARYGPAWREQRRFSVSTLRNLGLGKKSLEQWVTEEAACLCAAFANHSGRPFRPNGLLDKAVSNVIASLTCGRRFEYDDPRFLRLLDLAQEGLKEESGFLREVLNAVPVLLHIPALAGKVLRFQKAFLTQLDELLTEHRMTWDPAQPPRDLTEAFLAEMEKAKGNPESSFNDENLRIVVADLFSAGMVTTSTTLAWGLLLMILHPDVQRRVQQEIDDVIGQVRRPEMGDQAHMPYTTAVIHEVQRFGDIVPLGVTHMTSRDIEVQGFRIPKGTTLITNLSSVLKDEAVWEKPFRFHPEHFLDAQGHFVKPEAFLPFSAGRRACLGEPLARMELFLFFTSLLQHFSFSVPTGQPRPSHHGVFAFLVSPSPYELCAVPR

[7] = target: Cytochrome P450 3A4 (Homo sapiens, UniProt P08684); assay: Inhibition of CYP3A4 in human liver microsomes incubated in presence NADPH by LC-MS/MS analysis
Chain of Cytochrome P450 3A4 (P08684 whole entry): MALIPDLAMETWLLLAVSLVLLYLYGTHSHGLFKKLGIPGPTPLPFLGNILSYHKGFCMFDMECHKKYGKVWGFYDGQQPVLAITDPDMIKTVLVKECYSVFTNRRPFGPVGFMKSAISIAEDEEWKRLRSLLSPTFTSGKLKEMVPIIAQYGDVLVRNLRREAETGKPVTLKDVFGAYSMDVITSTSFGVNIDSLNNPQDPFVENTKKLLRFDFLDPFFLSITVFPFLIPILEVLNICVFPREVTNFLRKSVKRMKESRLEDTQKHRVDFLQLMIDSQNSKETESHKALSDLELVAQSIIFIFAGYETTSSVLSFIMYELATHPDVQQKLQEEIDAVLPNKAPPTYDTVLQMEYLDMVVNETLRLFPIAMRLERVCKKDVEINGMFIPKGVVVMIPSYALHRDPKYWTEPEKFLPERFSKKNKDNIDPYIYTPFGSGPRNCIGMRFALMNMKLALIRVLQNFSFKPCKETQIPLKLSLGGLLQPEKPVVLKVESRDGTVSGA

[8] = Elimination half life in C57BL/6 mouse at 15 mg/kg, po measured for 24 hrs by LC/MS/MS analysis; type: ADME, organism-based; details: in vivo, read-out: beta t1/2 (converted)
[9] = Volume of distribution at steady state in C57BL/6 mouse at 15 mg/kg, po or 2 mg/kg, iv measured for 24 hrs by LC/MS/MS analysis; type: ADME, organism-based; details: in vivo
[10] = AUC in C57BL/6 mouse at 15 mg/kg, po measured for 24 hrs by LC/MS/MS analysis; type: ADME, organism-based; set-up: dose 15 mg/kg, time 24 hrs, route po; details: in vivo
[11] = tested on: Mus musculus; assay: Antiarthritic activity in collagen-induced rheumatoid arthritis DBA/1 mouse model assessed as recovery of body weight at 15 mg/kg, po BID administered for 14 days starting from 7 days before immunization to 21 days after immunization and measured on day 22 post immunization; type: functional, organism-based; details: time 14.0 day
[12] = tested on: Mus musculus; assay: Antiarthritic activity in collagen-induced rheumatoid arthritis DBA/1 mouse model assessed as reduction in clinical score AUC at 15 mg/kg, po BID administered for 14 days starting from 7 days before immunization to 21 days after immunization and measured on day 41 post immunization; type: functional, organism-based; details: time 14.0 day
[13] = in vivo; details: C57BL/6, mouse, po, 15 mg/kg
[14] = in vivo; details: C57BL/6, mouse, po, 15 mg/kg; remark: listed apart in the source
[15] = species: Homo sapiens; assay: Inhibition of human CDK1/Cyclin B assessed as residual activity at 30 uM relative to control
[16] = target: Serine/threonine-protein kinase mTOR (Homo sapiens) (UniProt P42345); assay: Inhibition of human mTOR assessed as residual activity at 30 uM relative to control
[17] = AUC in Sprague-Dawley rat at 10 mg/kg, po measured for 24 hrs by LC-MS/MS analysis; type: ADME, organism-based; set-up: time 24 hrs, dose 10 mg/kg, route po; details: in vivo
[18] = Volume of distribution at steady state in beagle dog at 0.2 mg/kg, iv measured for 24 hrs by LC-MS/MS analysis; type: ADME, organism-based, Canis lupus familiaris; details: in vivo, read-out: Vdss

IC50 [1] [µM] | IC50 [2] [µM] | IC50 [4] [µM] | IC50 [5] [µM] | IC50 [6] [µM] | IC50 [7] [µM] | Structure (SMILES) | microsomal CLint at 1 µM [3] [µL/min/mg] | half-life [8] [h] | Vdss [9] [L/kg] | AUC at 24 h [10] [µM·h] | Activity [11] | Activity [12] | Cmax at 24 h [13] [µM] | bioavailability at 24 h [14] [%] | Activity [15] [%] | Activity [16] [%] | AUC at 24 h [17] [ng·h/mL] | Vd [18] [L/kg]
1 | 0.026 | > 100 | 4.93 | > 100 | > 100 | O=C(Nc1nc2cccc(C3CCC4(CC3)CCN(C(=O)[C@@H]3CC3(F)F)CC4)n2n1)C1CC1 | < 9.6 | 4.74 | 0.942 | 18 | Active | Active | 7.38 | 50.1 | – | – | – | –
– | – | – | – | – | – | O=C(Nc1nc2cccc(C3CCC4(CC3)CN(C(=O)[C@@H]3CC3(F)F)C4)n2n1)C1CC1 | < 9.6 | 2.01 | 1.61 | – | Active | Active | – | – | 109 | 104 | 19600 | 3.23
5.76 | 0.067 | > 100 | 64.3 | > 100 | > 100 | O=C(Nc1nc2cccc(C3CCC4(CC3)CCN(C(=O)[C@@H]3CC3(F)F)C4)n2n1)C1CC1 (some centres not stated) | 11.3 | – | – | – | – | – | – | – | – | – | – | –

Structure (SMILES) | IC50 [1] [µM] | IC50 [2] [µM] | IC50 [4] [µM] | IC50 [5] [µM] | IC50 [6] [µM] | IC50 [7] [µM] | microsomal CLint at 1 µM [3] [µL/min/mg] | half-life [8] [h] | Vdss [9] [L/kg] | AUC at 24 h [10] [µM·h] | Activity [11] | Activity [12] | Cmax at 24 h [13] [µM] | bioavailability at 24 h [14] [%] | Activity [15] [%] | Activity [16] [%] | AUC at 24 h [17] [ng·h/mL] | Vd [18] [L/kg]
O=C(Nc1nc2cccc([C@H]3CC[C@@H](NC(=O)[C@@H]4CC4(F)F)CC3)n2n1)C1CC1 | 0.957 | 0.024 | > 100 | 75 | > 100 | > 100 | < 9.6 | 1.5 | 0.501 | 54.1 | – | – | 25.7 | 66.6 | – | – | – | –
